Consider three compounds from patent publication US20020026069A1 (priority 1998, published 2002).

The nature of data set [1]: Stability of the solid on storage or heating. Type of data set: physicochemical.
A further data set can be described thus: Hygroscopicity. Type of data set: physicochemical.
For data set [2] the following is noted: cited from earlier work.
The conditions of data set [3]: cited from earlier work. The source holds these as a separate data set.
For data set [4] the following is noted: incubation for 6 months at 40° C.; composition produced by the Milman process (U.S. Pat. No. 5,354,885); cited from earlier work.
The nature of another data set: Solubility. It counts as physicochemical.
The nature of another data set: Particle size. Type of data set: physicochemical. The note with it: free base obtained by this process.
Data set [5] in a line: Stability in aqueous solution. The note with it: pH 2-3. Type of data set: physicochemical.
The mark [6] stands for this setting: synthesized by the methods of GB 1,364,505 / U.S. Pat. No. 3,803,120.
[7] abbreviates: free base obtained by this process.

On to `CCOC(=O)[C@@H](N)Cc1ccc(O)c(O)c1.Cl` [L-DOPA ethyl ester hydrochloride salt, L-DOPA ethyl ester hydrochloride, reference compound], for which the stability result in data set [1] (setting [6]) is given as “not stable”. Also, the hygroscopicity result in “Hygroscopicity” (setting [6]) is “hygroscopic”.
Turning to `N[C@@H](Cc1ccc(O)c(O)c1)C(=O)O` [L-DOPA], the half-life in vivo result in data set [2] is “short half-life”. Also, the solubility result in data set [3] is “very poor solubility”.
As for `CCOC(=O)[C@@H](N)Cc1ccc(O)c(O)c1` [L-DOPA ethyl ester], the “L-DOPA ethyl ester remaining after incubation” value in data set [4] is reported as “at least 97 % by weight”. For the same compound, the stability entry in data set [1] (setting [7]) is on record as “stable”. In addition, in data set [1] (produces cyclic levodopa and levodopa-levodopa ethyl ester), the sensitivity to heat result is “very sensitive to heat”. Also, the stability entry in data set [1] (setting [6]) was “not stable”. Moreover, the solubility in water result in the data set “Solubility” is reported as “soluble to a certain extent”. The hygroscopicity result in “Hygroscopicity” (setting [7]) is “non-hygroscopic”. For the same compound, in “Particle size”, the average particle size result is listed as “less than 60 μ” and the particle size range is recorded as 18-180 μ. Also, the “stability in the solution” value in data set [5] was “stable”.
